Measurements: ChEMBL document CHEMBL3639024, “Azinone-substituted azapolycycle MCH-1 antagonists, methods of making, and use thereof” (2013)

Biological target: Melanin-concentrating hormone receptor 1 (Homo sapiens, UniProt Q99705)
Assay: Binding Assay: Evaluation of the affinity of compounds for the human MCH-1 receptor was accomplished using 4-(3,4,5-tritritiumbenzyloxy)-1-(1-(2-(pyrrolidin-1-yl)ethyl)-1H-indazol-5-yl)pyridin-2(1H)-one and membranes prepared from stable CHO-K1 cells expressing the human MCH1 receptor obtained from Euroscreen (Batch 1138).
Type: cell membranes

Melanin-concentrating hormone receptor 1, sequence (Q99705 whole entry): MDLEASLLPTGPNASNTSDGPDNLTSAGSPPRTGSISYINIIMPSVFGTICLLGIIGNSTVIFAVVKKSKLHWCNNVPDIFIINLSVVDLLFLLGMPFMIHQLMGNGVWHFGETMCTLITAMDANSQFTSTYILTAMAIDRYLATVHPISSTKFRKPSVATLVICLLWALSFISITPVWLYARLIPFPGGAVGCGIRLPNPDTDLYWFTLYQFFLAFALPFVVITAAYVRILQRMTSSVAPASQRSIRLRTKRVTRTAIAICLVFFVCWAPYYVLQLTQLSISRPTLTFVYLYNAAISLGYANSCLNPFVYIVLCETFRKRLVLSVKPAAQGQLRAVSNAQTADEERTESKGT

Compound: Cn1c2c(c3ccc(-n4ccc(OCc5ccc(F)cn5)cc4=O)cc31)CN1CCCC1C2 (stereo unspecified)
- Ki: 9.7 nM
